One assay concerns the target T1, hA1AR (Homo sapiens, UniProt P30542).
T1 construct: host or cells: CHO cells
T1 sequence (P30542 1-326): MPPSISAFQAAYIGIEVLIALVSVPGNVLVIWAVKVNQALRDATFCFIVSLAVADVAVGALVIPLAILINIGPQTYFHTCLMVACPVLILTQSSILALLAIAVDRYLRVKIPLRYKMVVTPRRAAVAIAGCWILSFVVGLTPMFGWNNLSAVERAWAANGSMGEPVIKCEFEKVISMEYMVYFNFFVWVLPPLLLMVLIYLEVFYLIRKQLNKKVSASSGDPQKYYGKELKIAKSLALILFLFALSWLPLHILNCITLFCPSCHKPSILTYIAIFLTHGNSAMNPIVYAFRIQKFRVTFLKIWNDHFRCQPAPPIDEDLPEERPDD
The assay is described as follows: Competition binding, [3H]DPCPX, hA1 CHO cell membranes. The settings on record: displacement of [3H]DPCPX, hA1 CHO cells; mean ± SEM of four assays. How it is done: (§1) CHO cells transfected with hA1, hA2A, hA2B and hA3 ARs (Perkin Elmer, Boston, MA, USA) were grown adherently and maintained in Dulbecco’s modified Eagle’s medium with nutrient mixture F12, containing 10% fetal calf serum, penicillin (100 U/mL), streptomycin (100 μg/mL), L-glutamine (2 mM) and geneticine (G418; 0.2 mg/mL), at 37 °C, in 5% CO2/95% air, until their use in cAMP assays. For membrane preparation, the culture medium was removed, and the cells were washed with phosphate-buffered saline and scraped off T75 flasks in ice-cold hypotonic buffer (5 mM Tris HCl, 1 mM EDTA, pH 7.4). The cell suspension was homogenized with a Polytron, centrifuged for 30 min at 40,000× g, at 4 °C, and the resulting membrane pellet was used for competition binding experiments.
All synthesized compounds were tested for their affinity to hA1, hA2A and hA3 ARs. Competition experiments to hA1AR were carried out by incubating 1 nM [^3H]-8-cyclopentyl-1,3-dipropylxanthine ([^3H]-DPCPX) with membrane suspension (50 μg of protein/100 μL) and different concentrations of the examined compounds at 25 °C for 90 min in 50 mM Tris HCl, pH 7.4. Non-specific binding was defined as binding in the presence of 1 μM DPCPX and was always <10% of the total binding. Inhibition experiments to hA2A ARs were performed by incubating the radioligand [^3H]-4-(-2-[7-amino-2-{2-furyl}{1,2,4}triazolo{2,3-a} {1,3,5}triazin-5-yl-amino]ethyl)phenol ([^3H]-ZM241385) (1 nM) with the membrane suspension (50 μg of protein/100 μL) and different concentrations of the examined compounds for 60 min, at 4 °C, in 50 mM Tris HCl (pH 7.4), 10 mM MgCl2. Non-specific binding was determined in the presence of ZM241385 (1 μM) and was about 20% of the total binding. Competition binding experiments to A3ARs were carried out by incubating the membrane suspension (50 μg of protein/100 μL) with 0.5 nM [^125I]-N6-(4-aminobenzyl)-N-methylcarboxamidoadenosine ([^125I]-ABMECA) in the presence of different concentrations of the examined compounds for an incubation time of 120 min, at 4 °C, in 50 mM Tris HCl (pH 7.4), 10 mM MgCl2, 1 mM EDTA. Non-specific binding was defined as binding in the presence of 1 μM ABMECA and was always <10% of the total binding. Bound and free radioactivity were separated by filtering the assay mixture through Whatman GF/B glass-fiber filters, using a Brandel cell harvester (Brandel Instruments, Unterföhring, Germany). The filter bound radioactivity was counted by Packard Tri Carb 2810 TR scintillation counter (Perkin Elmer).
The protein concentration was determined according to a Bio-Rad method, with bovine albumin as a standard reference. Inhibitory binding constant (Ki) values were calculated from those of IC50 according to the Cheng–Prusoff equation, Ki = IC50/(1 + [C*]/KD*), where [C*] is the concentration of the radioligand, and KD* its dissociation constant. Ki and IC50 values were calculated by non-linear regression analysis, using the equation for a sigmoid concentration-response curve (Graph-PAD Prism, San Diego, CA, USA).

In another assay the target is T2, hA2B AR (Homo sapiens, UniProt P29275).
T2 construct: host or cells: CHO cells
T2 sequence (P29275 1-332): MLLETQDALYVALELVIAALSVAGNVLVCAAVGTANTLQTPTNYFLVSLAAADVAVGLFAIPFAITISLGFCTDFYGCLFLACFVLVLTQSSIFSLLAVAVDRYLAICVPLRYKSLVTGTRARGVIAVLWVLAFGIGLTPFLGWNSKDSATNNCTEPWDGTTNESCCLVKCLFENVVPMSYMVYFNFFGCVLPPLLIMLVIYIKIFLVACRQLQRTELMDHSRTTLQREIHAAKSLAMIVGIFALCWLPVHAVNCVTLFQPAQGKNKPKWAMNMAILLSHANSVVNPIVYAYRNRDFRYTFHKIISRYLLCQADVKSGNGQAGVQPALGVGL
Nature of the assay: cAMP assay in CHO cells expressing hA2B AR (stimulation of cAMP production). The format is cell-based. As to conditions: for Emax at 1 µM: CHO, 1 µM compound, in comparison with NECA (1 µM = 100%), read-out: Efficacy hA2B (cAMP assay) (converted); for EC50: hA2B CHO cells, mean ± SEM of four assays. On the procedure:
The amino-3,5-dicyanopyridines 1–21 were tested for their affinity at hA1, hA2A and hA3 ARs, stably transfected in Chinese Hamster Ovary (CHO) cells. Moreover, they were also studied as hA2B agonists by evaluating their stimulatory effect on cAMP production in CHO cells, stably expressing the hA2B AR. […] Due to their interesting pan profile, both compounds 1 and 5 were evaluated as AR agonists also at the hA2A and hA3 subtypes.
as §1
CHO cells transfected with hAR subtypes were washed with phosphate-buffered saline, detached with tripsine and centrifuged for 10 min at 200× g. Cells were seeded in a 96-well white half-area microplate (Perkin Elmer, Boston, USA) in a stimulation buffer composed of Hank Balanced Salt Solution, 5 mM HEPES, 0.5 mM Ro 20–1724, 0.1% BSA. The cAMP levels were then quantified by using the AlphaScreen cAMP Detection Kit (Perkin Elmer, Boston, MA, USA), following the manufacturer’s instructions. At the end of the experiments, the plates were read with a Perkin Elmer EnSight Multimode Plate Reader.

At hA1AR, `N#Cc1c(N)nc(SCc2ncc[nH]2)c(C#N)c1-c1cccs1` [Compound 5, 2-Amino-6-[(1H-imidazol-2-ylmethyl)sulfanyl]-4-(thiophen-2-yl)pyridine-3,5-dicarbonitrile] gave a Ki of 2.5 ± 0.2 nM. On hA2B AR, the Emax at 1 µM was 73% and a half-maximal effect (EC50) was put at 1.12 ± 0.11 nM.
The like results for `N#Cc1c(N)nc(SCc2ncc[nH]2)c(C#N)c1-c1ccco1` [Compound 1, 2-Amino-4-(furan-2-yl)-6-[(1H-imidazol-2-ylmethyl)sulfanyl]pyridine-3,5-dicarbonitrile] were, in that order, 9.63 ± 1.61 nM, 52% and 1.4 ± 0.2 nM.

(Values after publication PMC9024521, “4-Heteroaryl Substituted Amino-3,5-Dicyanopyridines as New Adenosine Receptor Ligands: Novel Insights on Structure-Activity Relationships and Perspectives” (Pharmaceuticals, 2022).)
